Our source for the solubility values is paper PMC9014415, “Repositioning of a Diaminothiazole Series Confirmed to Target the Cyclin-Dependent Kinase CRK12 for Use in the Treatment of African Animal Trypanosomiasis” (Journal of Medicinal Chemistry, 2022).

Values after ≈ are worked out from the molar mass of the structure shown.

This data set is described as follows: Solubility of compound 1 in PBS pH 7.4 (filtration, UHPLC). To be noted: phosphate buffered saline; aqueous; PBS pH 7.4, 24 h mixing, UHPLC (method used for compound 1). It counts as physicochemical. The protocol: software. All experiments were conducted with technical duplicates and at least three biological […]
1.4 Cytotoxicity assays – Rat skeletal myoblasts (L6)
The cytotoxicity of test compounds was evaluated using a rat skeletal myoblast (L6) cell line, as previously described3, but with minor modifications. Cells were grown in RPMI media supplemented with 10% (v/v) fetal calf serum. L6 cells at a seeding density of 2 x 10^4 cells/mL were incubated in microtiter plates overnight at 37 °C and 5 % CO2 until adherent. The following day, test compounds were added to the plates (3-fold serial dilutions), prior to incubation for 69 h. […] The plates were read using a SpectraMax (Gemini XS) fluorescence reader at an excitation wavelength of 536 nm and an emission wavelength of 588 nm. EC50 values were determined using SOFTmax Pro 5.2 analysis software. […]
The aqueous solubility of test compounds was measured using laser nephelometry. […] Triplicate aliquots were transferred to a flat-bottomed polystyrene plate which was immediately read on a NEPHELOstar nephelometer (BMG Lab Technologies). […]
Solubility of compound 1 was measured by a different method. […]
solution was then mixed for 24 h (rotary mixing, 900 rpm, 25°C) excluding light. […] The resulting filtrate was analysed for dissolved compound 1 using a truncated UHPLC methodology. […]

For orientation: solubility means the concentration that dissolves in the medium under given conditions. A higher solubility goes with a readily soluble substance. On to `CC(C)CS(=O)(=O)N[C@H]1CC[C@H](Nc2nc(N)c(C(=O)c3c(F)cccc3F)s2)CC1` [Compound 1, N-((trans)-4-((4-Amino-5-(2,6-difluorobenzoyl)thiazol-2-yl)amino)cyclohexyl)-2-methylpropane-1-sulfonamide], for which the concentration in solution (solubility at 24 h) was 105 µM (≈ 49.6 µg/mL).
